For assay [1], the target named is T1, Xenopus high-affinity melatonin receptor (Xenopus laevis, UniProt P49219).
T1 sequence (P49219 1-420): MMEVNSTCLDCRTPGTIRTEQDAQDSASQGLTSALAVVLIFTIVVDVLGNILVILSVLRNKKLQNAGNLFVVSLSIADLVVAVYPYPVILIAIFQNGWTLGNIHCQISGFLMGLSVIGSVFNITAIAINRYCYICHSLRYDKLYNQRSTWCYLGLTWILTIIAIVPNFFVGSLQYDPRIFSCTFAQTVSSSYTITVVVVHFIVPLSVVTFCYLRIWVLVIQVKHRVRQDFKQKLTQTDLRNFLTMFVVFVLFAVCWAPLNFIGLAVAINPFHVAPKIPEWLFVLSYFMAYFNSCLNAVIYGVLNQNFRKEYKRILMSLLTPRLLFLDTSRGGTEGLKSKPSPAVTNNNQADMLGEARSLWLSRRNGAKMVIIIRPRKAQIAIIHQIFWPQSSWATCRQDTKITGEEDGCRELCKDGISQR
Kind of assay: 125I-melatonin saturation and competition binding, whole COS-7 cells transiently expressing Xenopus receptor cDNA. More on the design: expressed in transfected cells; host or cells: COS-7 cells, transient, pcDNAI. Here is the method: Three days after transfection, medium was removed, the culture dishes were washed with PBS, and the cells were harvested. The cells were then pelleted (2500 rpm; 10 min, 4° C.) and stored at −80° C. Whole cell binding studies were performed by thawing the cells and resuspending them in binding buffer (50 mM Tris-HCl, pH 7.4, with 5 mM MgCl2) at a concentration of 456 μg protein 1 ml. […] Protein determinations were performed using the Pierce BCA Protein Assay (The Pierce Chemical Co., Rockford, Ill.). Binding data were analyzed by computer using the LIGAND Program of Munson and Rodbard ((1980) supra).
(§1) The Bmax value using the whole cell binding assay was 67±7 fmol/mg of protein.

Assay [2] has as its target T2, sheep high-affinity melatonin 1a receptor (Ovis aries, UniProt P48040).
T2 construct: expressed in transfected cells; host or cells: COS-7 cells, transient, pcDNAI, DEAE-dextran
Kind of assay: 125I-melatonin saturation and competition binding, whole COS-7 cells transfected with sheep receptor cDNA. An excerpt: (§2) Data shown are representative of three experiments. […] The data shown are representative of at least three experiments.
For ligand binding studies, the sheep receptor cDNA (SEQ ID NO:3) in pcDNAI was introduced into COS-7 cells using the DEAE-dextran method (Cullen, B. R. Methods Enzymol. (1987) 152:684-704). Approximately two to three days after transfection, cell culture medium was removed, the cultures dishes were washed with PBS, and the cells were harvested.
The cells were then pelleted (2500 rpm; 10 min, 4° C.) and stored at −80° C. Whole cell binding studies were performed by thawing the cells and resuspending them in binding buffer (50 mM Tris-HCl, pH 7.4, with 5 mM MgCl2) at a concentration of 200-500 μg protein/ml. The cell suspension was incubated with ^125I-Mel with or without drugs in a total reaction volume of 0.2 ml binding buffer; the suspension as incubated in a shaker bath for 1.5 hr at 25° C. All determinations were done in either duplicate or triplicate. Protein measurements were performed using the Pierce BCA Protein Assay. Binding data were analyzed by computer using the LIGAND Program of Munson and Rodbard (1980).

Assay [3] concerns human SCN. Conditions: quantitative 125I-Mel autoradiography, Reppert et al. 1988; cited from earlier work.
The test system of assay [4] is mock-transfected COS-7 cells. Kind of assay: 125I-melatonin binding in mock-transfected COS-7 cells.
From the text: as §1

The target of assay [5] is T3, sheep Mel-1a receptor (Ovis aries, UniProt P48040).
T3 construct: expressed in transfected cells
T3 sequence (P48040 whole entry): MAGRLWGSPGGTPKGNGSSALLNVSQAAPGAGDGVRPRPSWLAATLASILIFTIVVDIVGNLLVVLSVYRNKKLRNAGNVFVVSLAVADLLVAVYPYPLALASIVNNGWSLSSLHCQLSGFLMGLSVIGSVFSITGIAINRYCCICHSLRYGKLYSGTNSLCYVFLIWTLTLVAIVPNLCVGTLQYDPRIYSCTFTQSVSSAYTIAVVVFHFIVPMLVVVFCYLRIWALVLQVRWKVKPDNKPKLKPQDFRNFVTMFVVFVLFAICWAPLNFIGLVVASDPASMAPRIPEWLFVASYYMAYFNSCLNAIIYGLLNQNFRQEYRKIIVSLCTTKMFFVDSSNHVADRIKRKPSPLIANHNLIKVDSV
Description: Inhibition of forskolin-stimulated cAMP accumulation in NIH 3T3 cells stably transfected with sheep receptor cDNA. It counts as cell-based. The following applies: for effect of pertussis toxin pretreatment on melatonin inhibition of forskolin-stimulated cAMP: PTX 100 ng/ml, 18 hours, 1 μM melatonin, 10 μM forskolin. The method, then:
The 100% value is the mean cAMP value induced with 10 μM forskolin. […] Cells were preincubated with either vehicle or pertussis toxin for 18 hours (PTX: 100 ng/ml; pertussis toxin was purchased from List, Campbell, Calif.). […] Data are the mean plus standard deviation for 3 plates for each treatment.
Transformed NIH 3T3 cells were plated on 35 mm dishes. After forty-eight hours, the cells were washed twice with DMEM, and then incubated with or without drugs (diluted in DMEM) for 10 min at 37° C. At the end of treatment, the medium was aspirated and 1 ml of 50 mM acetic acid was added. The cells were collected, transferred to an Eppendorf tube, boiled for 5 min, and centrifuged (13,750 rpm for 15 min). The supernatant was collected and assayed for cAMP. All determinations were done in triplicate. Cyclic AMP levels were determined in duplicate by radioimmunoassay by standard techniques.
A general note: cAMP levels reflect the balance of adenylyl cyclase and phosphodiesterase activity.

Assay [6] addresses T4, human high-affinity melatonin 1a receptor (Homo sapiens, UniProt P48039).
T4 construct: expressed in transfected cells; host or cells: COS-7 cells, transient, pcDNAI
Description: 125I-melatonin saturation and competition binding, COS-7 cells transfected with complete human Mel-1a receptor cDNA. Conditions: 100 pM 125I-Mel, one-site model.
From the text: as §2

For assay [7], the target named is T5, human Mel-1b receptor (Homo sapiens, UniProt P49286).
T5 construct: expressed in transfected cells; host or cells: COS-1 cells, transient, pcDNA3; crude membrane homogenates
T5 sequence (P49286 1-362): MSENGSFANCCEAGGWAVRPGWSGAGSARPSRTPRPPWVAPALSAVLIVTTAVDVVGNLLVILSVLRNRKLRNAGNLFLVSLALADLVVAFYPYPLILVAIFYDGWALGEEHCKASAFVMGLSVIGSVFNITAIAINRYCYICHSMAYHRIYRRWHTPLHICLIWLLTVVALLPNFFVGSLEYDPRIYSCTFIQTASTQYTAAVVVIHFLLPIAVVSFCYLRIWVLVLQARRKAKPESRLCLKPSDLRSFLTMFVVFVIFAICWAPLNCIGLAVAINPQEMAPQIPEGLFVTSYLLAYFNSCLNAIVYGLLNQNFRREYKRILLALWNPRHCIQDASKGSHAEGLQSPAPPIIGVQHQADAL
Description: 125I-Mel saturation and competition binding, membranes of COS-1 cells transfected with human Mel-1b receptor cDNA. The following applies: for inhibition of specific 125I-Mel binding: micromolar concentrations, human Mel-1b; for Ki: 200 pM 125I-Mel, mean ± SE of 3-5 experiments; for Ratio (Mel-1a/Mel-1b): ratio of Ki values. Here is the method: Inset: Scatchard plot of saturation data. […] Data shown are representative of five experiments.
(§3) The data shown are mean values of three to five experiments for each drug.
Binding and pharmacological properties of the human Mel-1b receptor were examined by transiently expressing the receptor cDNA in COS-1 cells.
(§4) Expression studies were performed as follows. COS-1 and NIH 3T3 cells were grown as monolayers in Dulbeccols modified Eagle's medium (DMEM) supplemented with 10% fetal calf serum, penicillin (50 U/ml), and streptomycin (50 μg/ml), in 5% CO2 at 37° C. […] Three days after transfection, medium was removed, and the dishes were washed with PBS. The cells were harvested in Hank's balanced salt solution and centrifuged (1400×g; 10 min, 4° C.). The resultant pellets were stored at −80° C. Crude membrane homogenates were prepared by thawing the pellets on ice and resuspending them in TME buffer (pH 7.4) consisting of 50 mM Tris base, 12.5 mM MgCl2, 1 mM EDTA, and supplemented with 10 μg/ml aprotinin and leupeptin, and 100 μM phenylmethylsulfonylfluoride. The cells were then homogenized using a dounce homogenizer and centrifuged (45,000×g; 15 min at 4° C.). The resulting pellet was resuspended with a dounce homogenizer in TME and frozen at […] in aliquots.
(§5) Incubations were initiated by the addition of the membrane preparation and were conducted at 37° C. for 60 min. […] All determinations were done in either duplicate or triplicate.
(§6) Protein measurements were performed by the method of Bradford (Bradford, M. M. (1976) Anal. Biochem. 72, 248-254), using bovine serum albumin as the standard.
(§7) For comparison, binding and pharmacology of COS-1 cells transiently expressing the human Mel-1a receptor were assessed in parallel.

Assay [8] has as its target T6, human Mel-1a receptor (Homo sapiens, UniProt P48039).
T6 construct: expressed in transfected cells; host or cells: COS-1 cells, transient, pcDNA3; crude membrane homogenates
Description: 125I-Mel saturation and competition binding, membranes of COS-1 cells transfected with human Mel-1a receptor cDNA. The following applies: 100 pM 125I-Mel, mean ± SE of 3-5 experiments. Here is the method: as §3, §4, §5, §6, §7

The target of assay [9] is mouse Mel-1a receptor (Mus musculus, UniProt Q61184, F119L/I348L/K349P/L29M/L347F). The following applies: COS-7 cells; comparable to sheep and human Mel-1a receptors.
Sequence of mouse Mel-1a receptor (Q61184 whole entry L29M/F119L/L347F/I348L/K349P): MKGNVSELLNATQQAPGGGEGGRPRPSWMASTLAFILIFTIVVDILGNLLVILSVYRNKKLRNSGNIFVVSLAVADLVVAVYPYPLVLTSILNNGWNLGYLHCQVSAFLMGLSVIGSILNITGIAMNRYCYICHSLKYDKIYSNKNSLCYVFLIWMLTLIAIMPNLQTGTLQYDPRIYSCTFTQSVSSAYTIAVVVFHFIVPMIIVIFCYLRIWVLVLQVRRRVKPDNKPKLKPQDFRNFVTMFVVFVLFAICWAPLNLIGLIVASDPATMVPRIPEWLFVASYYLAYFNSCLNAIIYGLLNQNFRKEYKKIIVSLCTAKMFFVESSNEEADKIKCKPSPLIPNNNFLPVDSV
Assay [10] addresses T1, Xenopus high-affinity melatonin receptor. Kind of assay: Inhibition of forskolin-stimulated cAMP accumulation in CHO cells stably transfected with Xenopus receptor cDNA. It counts as cell-based. Set-up: expressed in transfected cells. The method, then: The 100% value is the mean cAMP value induced with 10 μM forskolin.
Transformed CHO cells were plated on 35 mm culture dishes. After 48 hours, the cells were washed twice with Ham's F-12 (Life Technologies, Bethesda, Md.). […] Following treatment, the medium was aspirated and 1 ml of 50 mM acetic acid was added to the culture dish. The cells were collected, transferred to an Eppendorf tube, boiled for 5 min, and centrifuged (13,750 rpm for 15 min). The supernatant was collected and assayed for cAMP. All determinations were performed in triplicate. Cyclic AMP levels were determined in duplicate by radioimmunoassay (New England Nuclear, Boston, Mass.).

Where [11] appears, read: 100 pM 125I-melatonin, COS-7 cells, Xenopus receptor, representative of three experiments, read-out: Ki, competition for 125I-melatonin binding.
The mark [12] stands for this setting: 100 pM 125I-Mel, COS-7 cells, sheep receptor, one-site model, read-out: Ki, competition for 125I-Mel binding.

Like-named read-outs stand apart in the source and are kept apart here.

The Kd is the equilibrium constant for the complex coming apart. As a reminder, the IC50 is the point on the concentration scale where inhibition reaches its midpoint.

T2 sequence (P48040 whole entry): as the sequence (P48040 whole entry) above
T4 sequence (P48039 whole entry): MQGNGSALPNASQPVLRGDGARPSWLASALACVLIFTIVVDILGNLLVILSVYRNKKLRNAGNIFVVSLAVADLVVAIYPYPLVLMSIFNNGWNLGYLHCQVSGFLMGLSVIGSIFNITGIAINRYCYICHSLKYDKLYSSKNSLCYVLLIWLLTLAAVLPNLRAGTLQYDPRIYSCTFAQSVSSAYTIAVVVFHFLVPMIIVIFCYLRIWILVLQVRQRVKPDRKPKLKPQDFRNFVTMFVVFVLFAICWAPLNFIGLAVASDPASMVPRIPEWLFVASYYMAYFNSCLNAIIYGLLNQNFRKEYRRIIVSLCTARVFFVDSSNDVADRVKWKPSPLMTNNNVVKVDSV
T6 sequence (P48039 whole entry): as above

For `COc1ccc2[nH]c(I)c(CCNC(C)=O)c2c1` [2-iodomelatonin], the Ki turned out to be 0.11 nM in assay [1] and 0.037 nM in [2].
`COc1cc2c(CCNC(C)=O)c[nH]c2cc1Cl` [6-chloromelatonin]: the Ki is 3 nM in assay [1] (setting [11]) and 0.25 nM in assay [2] (setting [12]). In addition, the affinity entry in [3] was “high affinity”.
In the case of `COc1ccc2[nH]c([125I])c(CCNC(C)=O)c2c1` [^125I-melatonin, 2-[^125I]-iodomelatonin], the “specific binding of 125I-melatonin” value in assay [4] is on record as “No specific binding”.
Turning to Pertussis toxin, the “effect of pertussis toxin pretreatment on melatonin inhibition of forskolin-stimulated cAMP” value is listed as “completely abolished” in [5] and “blocks” in assay [5] (listed as pertussis toxin).
Consider `COc1cc2c(CCNC(C)=O)c[nH]c2cc1O` [6-hydroxymelatonin], for which the Ki worked out at 20 nM in assay [1] (setting [11]), 2 nM in assay [6] and 3 nM in assay [2] (setting [12]).
Consider `COc1cc2nc(N3CCN(C(=O)c4ccco4)CC3)nc(N)c2cc1OC` [prazosin], for which the “inhibition of specific 125I-Mel binding” value in [7] is “did not inhibit”.
`COc1ccc2[nH]c(I)c(CCNC(C)=O)c2c1` [^125I-melatonin, 2-[^125I]-iodomelatonin]: in assay [1] (saturation 5 to 1280 pM, COS-7 cells, Xenopus receptor, n=3 experiments, read-out: Kd of 125I-melatonin (Scatchard analysis)), the dissociation constant Kd came to 0.063 nM. Also, the Ki in assay [2] (FIG. 14a inset, COS-7 cells, sheep receptor, representative experiment, read-out: Ki value for the sheep receptor from Scatchard plot of saturation data) came to 0.036 nM.
With `CC(=O)NCCc1c[nH]c2ccc(O)cc12` [NAS, N-acetyl-5-hydroxytryptamine], the Ki in [7] was 595 ± 127 nM; in [1] (setting [11]), 2000 nM; in assay [6], 170 nM; in [2] (setting [12]), 140 nM; in assay [8] it was 986 ± 137 nM. For the same molecule, in assay [7], the “Ratio (Mel-1a/Mel-1b)” value is 1.6.
With `COc1ccc2[nH]c(-c3ccccc3)c(CCNC(C)=O)c2c1` [2-phenylmelatonin], in assay [7], the Ki amounted to 0.26 ± 0.06 nM and the “Ratio (Mel-1a/Mel-1b)” value is reported as 0.8. This molecule also returned a Ki in [8] of 0.21 ± 0.06 nM.
Regarding `NCCc1c[nH]c2ccc(O)cc12` [5-HT, 5-hydroxytryptamine], in assay [7], the “inhibition of specific 125I-Mel binding” value is recorded as “did not inhibit”. Also, the Ki in [1] (setting [11]) was over 100000 nM; in assay [6] it was over 100000 nM; in assay [2] (setting [12]), over 100000 nM; in [8], over 10000 nM. The affinity result in assay [3] is listed as “very low affinity”.
For the molecule `COc1ccc2[nH]cc(CCNC(C)=O)c2c1` [melatonin], the binding affinity entry in assay [9] is “high affinity”. For the same molecule, the Ki in [1] (setting [11]) turned out to be 1.3 nM. Further, in assay [3], the affinity result is recorded as “high affinity”. Further, in assay [10] (CHO, read-out: maximal inhibition of the mean forskolin-stimulated cAMP concentration), the inhibition at 0.01 µM stood at 68%. Moreover, the IC50 in assay [10] (manual curve fitting of FIG. 12, 10 μM forskolin, CHO cells, Xenopus receptor) is about 0.8 nM. The “inhibition of forskolin-stimulated cAMP increase in vector-only cells” value in [10] (melatonin 1×10^−6 M, CHO cells stably transfected with vector lacking the Xenopus cDNA) is on record as “did not inhibit”. For the same molecule, the “effect on basal cAMP levels” value in assay [10] (melatonin alone 1×10^−6 M, stably transfected CHO cells) is given as “not to alter basal cAMP levels”; in assay [5] (stably transfected NIH 3T3 lines, sheep receptor), “did not alter basal cAMP levels”. Besides, in assay [5] (melatonin 1 μM, NIH 3T3 cells with pcDNAI NEO lacking the sheep receptor cDNA), the “inhibition of forskolin-stimulated cAMP accumulation in vector-only cells” value is “did not inhibit”.
